Data as given in US11655252B2, “Aminopyrimidinyl derivatives” (Pfizer Inc., priority 2020, dated 2023).

Legend:
[1] = In Vitro Human Hepatocyte Clearance Assay; type: in vitro ADME; settings: cryopreserved human hepatocytes in suspension, 0.5 million cells/mL, 1 μM test compound, read-out: HHEP CLint, app (μL/min/million cells)
Experimental: In Vitro Human Hepatocyte Clearance Assay A high-throughput human hepatocyte substrate-depletion assay was performed in a 384-well formatted as described previously [Di et al., Eur. J. Med. Chem., 2012, 57, 441]. Briefly, the cryopreserved human hepatocytes were thawed and resuspended in Williams' E medium supplemented with HEPES and Na2CO3. The cells were counted using the trypan blue exclusion method. Test compounds were added to suspended human hepatocytes in Williams' E medium buffer and incubated at 37° C. in a humidified CO2 incubator (75% relative humidity, 5% CO2/air) for 4 hours. The final incubation contained 0.5 million cells/mL and 1 μM test compound in 15 μL total volume with 0.1% DMSO. At various time points (0, 3, 10, 30, 60, 120, and 240 minutes), an aliquot of the sample was taken and quenched with cold acetonitrile containing internal standard. The samples were centrifuged at 3000 rpm for 10 minutes at 4° C., and the supernatants were transferred to new plates, which were sealed before performing LC-MS/MS analysis. The apparent metabolic intrinsic clearance (CLint, met, app) was determined based on the substrate-depletion half-life estimated from the ratio of the peak area response of each compound to that of the internal standard, as described earlier [Di et al., Eur. J. Med. Chem., 2012, 57, 441].

[2] = system: CXCL10 biomarker in Th2 stimulated ex vivo human skin; experiment: Biomarker Modulation in Th2 Stimulated Ex Vivo Human Skin Assay; type: cell-based; settings: 1% w/w formulation applied topically, qPCR
Experimental: Biomarker Modulation in Th2 Stimulated Ex Vivo Human Skin Assay Compounds of this invention were assessed for their ability to modulate CXCL10 biomarker in Th2 stimulated ex vivo human skin following topical application. […] Freshly excised human skin from surgery specimens was cut with a dermatome to 750 μm thickness and mounted in a 7 mm static Franz cell for tissue culture such that the upper surface of the skin was exposed to air in the Franz cell donor chamber, and the bottom (dermis) was exposed to Cornification medium. A total of two skin donors were used (n=6 per treatment per donor). Incubations were carried out in a standard tissue culture incubator. Compound was dissolved in the indicated formulation at a concentration of 1% w/w and added apically to the skin at 10 μL per sample (approximately 18 μL per cm^2) at 4-6 replicates per donor. After 16 h media was replaced with stimulation cocktail containing anti-CD3 mAb, anti-CD28 mAb, IL-2, IL-4, IL-33 and TSLP. Incubation was continued for additional 24 hr at 37° C. Then skin was harvested, treated with RNALater solution and processed for RNA extraction and qPCR that was run in duplicates. MMP12, CCL26, CXCL10 and Filaggrin may be measured. Results for each sample were normalized to its own GAPDH internal standard which was not appreciably affected by stimulus or compound. Fold change was normalized to untreated sample.

TYK2 = TYK2 (Homo sapiens (Human), UniProt P29597); experiment: JAK Family Caliper Enzyme Assay (TYK2); type: biochemical; settings: recombinant human kinase domain, 1 mM ATP
Chain of TYK2 (P29597 897-1176): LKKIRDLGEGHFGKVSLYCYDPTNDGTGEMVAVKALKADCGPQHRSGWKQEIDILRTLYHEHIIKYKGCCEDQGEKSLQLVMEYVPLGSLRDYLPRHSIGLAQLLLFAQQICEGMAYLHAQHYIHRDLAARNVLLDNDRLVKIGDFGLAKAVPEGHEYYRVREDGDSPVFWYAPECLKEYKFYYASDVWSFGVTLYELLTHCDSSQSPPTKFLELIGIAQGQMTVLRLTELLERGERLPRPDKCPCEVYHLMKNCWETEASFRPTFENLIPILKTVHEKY
Experimental: (§1) JAK Family Caliper Enzyme Assay
(§2) Compounds of the invention were evaluated by in vitro methods to determine their respective ability to inhibit the JAK kinases (TYK2, JAK1, JAK2, JAK3). Inhibitory activity was determined by using a microfluidic assay (LabChip 3000™ mobility shift technology, Caliper Life Science) to monitor phosphorylation of a synthetic peptide by the recombinant human kinase domain of each of the four members of the JAK family, JAK1, JAK2, JAK3 and TYK2. Reaction mixtures contained 1 μM of a fluorescently labeled synthetic peptide, a concentration less than the apparent Km, and 1 mM ATP.
(§3) Compounds in DMSO solution were added to a 384-well plate. Reaction mixtures contained 10 mM HEPES, pH 7.4, 10 mM MgCl2, 0.01% BSA, 0.0005% Tween 20™, 1 mM ATP and 1 μM peptide substrate. The JAK1 and TYK2 assays contained 1 μM of the IRStide peptide (5FAM-KKSRGDYMTMQID) and the JAK2 and JAK3 assays contained 1 μM of the JAKtide peptide (FITC-KGGEEEEYFELVKK). The assays were initiated by the addition of 20 nM JAK1, 1 nM JAK2, 1 nM JAK or 1 nM TYK2 enzyme and were incubated at room temperature for three hours for JAK1, 60 minutes for JAK2, 75 minutes for JAK3 or 135 minutes for TYK2. Enzyme concentrations and incubation times were optimized for each new enzyme preps and were modified slightly over time to ensure 20% to 30% phosphorylation. The assays were stopped with 15 μL of 180 mM HEPES, pH 7.4, 20 mM EDTA, and 0.2% Coating Reagent 3. The assay plates were placed on a Caliper Life Science LC3000 instrument, and each well was sampled using appropriate separation conditions to measure the unphosphorylated and phosphorylated peptide.
(§4) The data was collected using the HTS Well Analyzer software from Caliper Life Sciences. The data output for data analysis is the percent product converted calculated on peak height (Equation 1). % product converted=100*((product)/(product+substrate)) Equation 1: […]
(§5) The percent effect at each compound concentration was calculated based on the positive and negative control well contained within each assay plate (Equation 2). […] The negative control wells contained DMSO alone (at the same concentration as the compound wells) that was used to set the baseline activity in the assay (i.e., uninhibited JAK1, JAK2, JAK3 or TYK2). % effect=100*((sample well−negative control)/(positive control−negative control)) Equation 2: […]
(§6) The percent effect was plotted against the compound concentration compound. An unconstrained sigmoid curve was fitted using a 4 parameter logistic model and the compound concentration required for 50% inhibition (IC50) was determined (Equation 3). y=((max−min)/(1+((x/IC50)^s)))+min Equation 3: […]

JAK3 = JAK3 (Homo sapiens (Human), UniProt P52333); experiment: JAK Family Caliper Enzyme Assay (JAK3); type: biochemical; settings: recombinant human kinase domain, 1 mM ATP
Chain of JAK3 (P52333 822-1111): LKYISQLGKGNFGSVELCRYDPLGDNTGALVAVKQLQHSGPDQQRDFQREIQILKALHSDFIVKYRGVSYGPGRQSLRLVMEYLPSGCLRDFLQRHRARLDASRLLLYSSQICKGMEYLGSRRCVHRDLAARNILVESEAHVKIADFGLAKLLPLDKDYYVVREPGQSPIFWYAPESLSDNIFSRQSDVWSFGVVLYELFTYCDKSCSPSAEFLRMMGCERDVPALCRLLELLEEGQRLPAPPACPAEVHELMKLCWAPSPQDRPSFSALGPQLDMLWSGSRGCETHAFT
Experimental: as §1, §2, §3, §4
The percent effect at each compound concentration was calculated based on the positive and negative control well contained within each assay plate (Equation 2). […]

JAK2 = JAK2 (Homo sapiens (Human), UniProt O60674); experiment: JAK Family Caliper Enzyme Assay (JAK2); type: biochemical; settings: recombinant human kinase domain, 1 mM ATP
Chain of JAK2 (O60674 849-1124): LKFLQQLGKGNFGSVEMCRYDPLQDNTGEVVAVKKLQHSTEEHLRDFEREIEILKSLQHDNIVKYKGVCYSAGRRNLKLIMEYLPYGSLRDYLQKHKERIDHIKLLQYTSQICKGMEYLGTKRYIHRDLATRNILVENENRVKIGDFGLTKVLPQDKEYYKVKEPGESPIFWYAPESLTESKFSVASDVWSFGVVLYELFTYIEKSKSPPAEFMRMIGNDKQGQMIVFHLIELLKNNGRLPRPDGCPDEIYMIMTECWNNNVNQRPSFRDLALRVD
Experimental: as §1, §2, §3, §4, §5, §6

JAK1 = JAK1 (Homo sapiens (Human), UniProt P23458); experiment: JAK Family Caliper Enzyme Assay (JAK1); type: biochemical; settings: recombinant human kinase domain, 1 mM ATP
Chain of JAK1 (P23458 875-1153): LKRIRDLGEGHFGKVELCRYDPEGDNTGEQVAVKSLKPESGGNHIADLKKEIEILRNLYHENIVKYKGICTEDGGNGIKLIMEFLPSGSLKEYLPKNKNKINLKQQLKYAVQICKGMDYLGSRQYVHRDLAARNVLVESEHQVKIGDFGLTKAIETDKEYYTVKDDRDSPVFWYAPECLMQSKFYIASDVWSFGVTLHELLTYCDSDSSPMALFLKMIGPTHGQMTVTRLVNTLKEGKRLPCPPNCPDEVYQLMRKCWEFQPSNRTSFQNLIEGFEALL
Experimental: as §1, §2, §3, §4, §5, §6

[3] = system: interferon alpha signalling (TYK2 and JAK1), pSTAT3 in human whole blood lymphocytes; experiment: HWB INF Alpha Induced STAT3 Phosphorylation Assay; type: cell-based; settings: Lymphocyte, IFN alpha 5000 U/ml, flow cytometry
Experimental: HWB INF Alpha Induced STAT3 Phosphorylation Assay
Compounds of this invention were assessed for their ability to inhibit interferon alpha signalling in a human whole blood flow cytometry assay. Interferon alpha signals through TYK2 and JAK1. Test articles were prepared as 30 mM stocks in 100% DMSO, and then diluted to 10 mM. An 11-point 3 dilution series was created in DMSO with a top concentration of […]. Further dilution was done by adding 4 μL of the above test article solutions into 96 μL of PBS with a top concentration of 400 μM. Human whole blood (HWB) was collected from healthy donors via vein puncture into Vacutainer™ collection tubes containing sodium heparin (Catalog No. 366480, Becton Dickinson, Franklin Lakes, N.J.). Blood was warmed to 37° C. prior to use. […]
Samples were transferred to 96-well U bottom plates (Falcon #353077) and flow cytometric analysis was performed on an LSRFortessa equipped with a HTS plate loader (BD Biosciences). […] Background fluorescence was defined using unstimulated cells and a gate was placed at the foot of the peak to include ˜0.5% gated population. […] Relative fluorescence unit (RFU), which measures the level of phospho STAT, was calculated by multiplying the percent positive population and its mean fluorescence. […] Inhibition curves and IC50 values were determined using the Prism version 7 software (GraphPad, La Jolla, Calif.).

SMILES | hepatocyte CLint at 1 μM [1] | % inhibition CXCL10 [2] | IC50 (TYK2) | IC50 (JAK3) | IC50 (JAK2) | IC50 (JAK1) | IC50 [3]
Cn1cc(Nc2nccc(N3C[C@H]4CC[C@@H](C3)N4C(=O)[C@@H]3CC3(F)F)n2)cn1 [II, ((S)-2,2-difluorocyclopropyl)-((1R,5S)-3-(2-((1-methyl-1H-pyrazol-4-yl)amino)pyrimidin-4-yl)-3,8-diazabicyclo[3.2.1]octan-8-yl)methanone, reference compound] | < 0.6 µL/min/1e6 cells | 72.4% |  |  |  |  | 
O=C([C@@H]1CC1(F)F)N1[C@@H]2CC[C@H]1CN(c1ccnc(Nc3cnn(CCCO)c3)n1)C2 [ID] |  |  | 30 nM | > 9280 nM | 81 nM | 47 nM | 
CCCn1cc(Nc2nccc(N3C[C@H]4CC[C@@H](C3)N4C(=O)[C@@H]3CC3(F)F)n2)cn1 [IA, ((S)-2,2-Difluorocyclopropyl)((1R,5S)-3-(2-((1-propyl-1H-pyrazol-4-yl)amino)pyrimidin-4-yl)-3,8-diazabicyclo[3.2.1]octan-8-yl)methanone] | 8.6 µL/min/1e6 cells | 94.2% | 37 nM | > 9580 nM | 80 nM | 33 nM | 66 nM
C[C@H](O)Cn1cc(Nc2nccc(N3C[C@H]4CC[C@@H](C3)N4C(=O)[C@@H]3CC3(F)F)n2)cn1 [IC, ((S)-2,2-Difluorocyclopropyl)((1R,5S)-3-(2-((1-((S)-2-hydroxypropyl)-1H-pyrazol-4-yl)amino)pyrimidin-4-yl)-3,8-diazabicyclo[3.2.1]octan-8-yl)methanone] |  |  | 65 nM |  | 139 nM | 44 nM | 
C[C@@H](O)Cn1cc(Nc2nccc(N3C[C@H]4CC[C@@H](C3)N4C(=O)[C@@H]3CC3(F)F)n2)cn1 [IB, ((S)-2,2-Difluorocyclopropyl)((1R,5S)-3-(2-((1-((R)-2-hydroxypropyl)-1H-pyrazol-4-yl)amino)pyrimidin-4-yl)-3,8-diazabicyclo[3.2.1]octan-8-yl)methanone] |  |  | 82 nM | > 10000 nM | 223 nM | 59 nM | 
